Where two headings read alike, the source gives them in different places.
Tests used:
[1] = test system: β-amyloid 1–40; experiment: β-amyloid 1–40 aggregation, Thioflavin T fluorescence; assay type: biochemical; conditions: 100 μM, 72 h incubation
Method: (§1) The effect of the studied compounds on the aggregation of β-amyloid (1–40/1–42) was analyzed using the method of recording Thioflavin T fluorescence (10 µM) for 72 h at 37 °C. The fluorescence signal was measured using a multifunctional flatbed analyzer, the Cytation ™ 3 (BioTek Instruments, Inc., Winooski, VT, USA), at λex = 450 nm, λem = 480 nm.
(§2) The effect of hydroxamic acids on the stage of aggregation of the pathological β-amyloid peptide was investigated for 72 h using two model systems—fragments Aβ1–40 and Aβ1–42. The fluorophore Thioflavin T was used as an indicator of the ongoing fibrillation process, the interaction of which with proteins in the state of amyloid fibrils leads to an increase in the fluorescence signal.

[2] = molecular target: T1, HDAC6 (Homo sapiens, UniProt Q9UBN7); experiment: HDAC6 enzyme activity, FLUOR DE LYS fluorometric kit; assay type: biochemical
T1 construct: purchased Enzo Life Sciences (Enzo Biochem, New York, NY, USA)
T1 sequence (Q9UBN7 1-1215): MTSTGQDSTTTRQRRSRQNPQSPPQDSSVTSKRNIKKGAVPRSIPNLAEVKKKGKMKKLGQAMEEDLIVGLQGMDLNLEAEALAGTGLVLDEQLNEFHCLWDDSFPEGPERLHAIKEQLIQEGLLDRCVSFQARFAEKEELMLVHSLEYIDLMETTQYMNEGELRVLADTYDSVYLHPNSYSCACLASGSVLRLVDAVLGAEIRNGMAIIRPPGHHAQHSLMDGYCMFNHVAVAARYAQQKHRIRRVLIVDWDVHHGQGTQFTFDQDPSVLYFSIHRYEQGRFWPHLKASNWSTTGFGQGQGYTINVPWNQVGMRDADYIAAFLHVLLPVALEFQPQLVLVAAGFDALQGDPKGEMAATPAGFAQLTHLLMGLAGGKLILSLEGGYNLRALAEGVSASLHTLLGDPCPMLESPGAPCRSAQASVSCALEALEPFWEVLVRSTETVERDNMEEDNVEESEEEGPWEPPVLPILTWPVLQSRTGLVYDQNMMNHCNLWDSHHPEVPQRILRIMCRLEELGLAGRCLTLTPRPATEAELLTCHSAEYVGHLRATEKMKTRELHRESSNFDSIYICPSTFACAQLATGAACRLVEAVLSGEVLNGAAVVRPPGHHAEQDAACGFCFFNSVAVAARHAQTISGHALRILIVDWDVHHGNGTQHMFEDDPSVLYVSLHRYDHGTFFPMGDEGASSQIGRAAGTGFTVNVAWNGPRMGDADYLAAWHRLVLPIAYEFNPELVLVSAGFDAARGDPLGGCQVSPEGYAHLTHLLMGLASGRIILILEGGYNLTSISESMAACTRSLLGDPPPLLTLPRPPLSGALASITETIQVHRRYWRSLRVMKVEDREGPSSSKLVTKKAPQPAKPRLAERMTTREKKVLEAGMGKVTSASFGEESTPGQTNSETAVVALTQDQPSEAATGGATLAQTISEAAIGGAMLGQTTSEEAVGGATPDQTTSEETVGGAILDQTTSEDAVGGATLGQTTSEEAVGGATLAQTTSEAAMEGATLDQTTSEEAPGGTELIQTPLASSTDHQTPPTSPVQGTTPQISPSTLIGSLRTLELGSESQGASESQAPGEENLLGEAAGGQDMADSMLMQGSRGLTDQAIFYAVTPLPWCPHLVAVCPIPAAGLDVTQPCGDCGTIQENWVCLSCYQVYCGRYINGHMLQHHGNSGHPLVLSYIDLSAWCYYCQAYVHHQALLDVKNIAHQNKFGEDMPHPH

[3] = DPPH test of antiradical activity; conditions: substances at 100 μM, mean ± SEM
Method: The DPPH test was used to examine antiradical activity based on the ability of a stable chromogen radical of 2,2-diphenyl-1-picrylhydrazyl (DPPH) to remove a hydrogen atom, which is accompanied by a change in the absorption maximum in the electronic absorption spectra. The amount of reduced DPPH was measured using a Cytation ™ 3 multifunctional plate analyzer (BioTek Instruments, Inc., Winooski, VT, USA) at a wavelength of 517 nm.
The antiradical activity of the test compounds was evaluated by the DPPH test, based on the ability of antioxidants to donate an electron to the stable chromogen radical DPPH, converting it into a nonradical form and neutralizing its activity. […] The chromogenic free radical DPPH used in this test has a large size, and substances even with a similar chemical structure may have different antiradical properties due to spatially difficult access.

[4] = test system: T2, β-amyloid 1–42; experiment: β-amyloid 1–42 aggregation, Thioflavin T fluorescence; assay type: biochemical; conditions: 100 μM, 72 h incubation
T2 construct: fragments Aβ1–40 and Aβ1–42
Method: as §1, §2

[5] = test system: HEK 293 cells; experiment: MTT cell viability, HEK 293; assay type: cell-based; conditions: Homo sapiens, HEK293; HEK-293, MTT test
Method: (§3) The effect of the hydroxamic acids on the viability of cells obtained from human embryonic kidneys, HEK 293, as well as the native form of human neuroblastoma, SH-SY5Y, was evaluated in the MTT test. Using a multifunctional flatbed analyzer, Cytation™3 (BioTek Instruments, Inc., Winooski, VT, USA), the optical density was determined at a wavelength of 530 nm. Based on the dose-dependent curves, the concentration values leading to 50% inhibition of cell population growth (IC50) were calculated.
(§4) Due to the fact that most compounds of the class of hydroxamic acids have high cytotoxic activity and are mainly used as anticancer drugs, their use as neuroprotective drugs is limited. Since the goal of our work was to search for agents for the pharmacological correction of neurodegenerative diseases, a necessary part of the biological activity study of the synthesized hydroxamic acids was to determine their effect on the survival of cell cultures. In our work, we used neuron-like neuroblastoma cells SH-SY5Y and a healthy cell line isolated from the human embryonic kidney, HEK 293.

[6] = test system: SH-SY5Y cells; experiment: MTT cell viability, SH-SY5Y; assay type: cell-based; conditions: Homo sapiens, MTT test
Method: as §3, §4

[7] = test system: lipid peroxidation (LPO) of rat brain homogenate; experiment: Lipid peroxidation (LPO) of rat brain homogenate, TBARS test; assay type: biochemical; conditions: substances at 100 μM, mean ± SEM; for % of Activity, Inhibition of LPO, Fe (II): Fe (II)-induced; for % of Activity, Inhibition of LPO, t-BHP: t-BHP-induced
Method: To obtain the brain homogenate, rats preliminarily anesthetized with CO2 were decapitated with a guillotine. The brain was homogenized in a buffer containing KCl (120 mM) and HEPES (20 mM), pH = 7.4 at 4 °C, and centrifuged at 1500 rpm to obtain a supernatant. The protein was quantified according to the standard microbiuret method.
To investigate the effect of the compounds on lipid peroxidation (LPO) of rat brain homogenate, we used the modified version of the TBARS test, which is based on the reaction of 2-thiobarbituric acid with the end LPO product—malonic dialdehyde (MDA). The plate well, according to the experimental scheme, contained the compounds under study (100 μM), rat brain homogenate (2 mg/mL), as well as ferrous iron ions ([…]) at a concentration of 500 μM and 1.6 mM tert-butyl hydroxyperoxide as an initiator. After 30 min of incubation at 37 °C, TBARS reagent was added to all samples, incubated for 90 min at 90 °C, and centrifuged at 6000 rpm for 15 min. The optical density of the selected supernatant was measured on a Victor 3 plate reader (Perkin Elmer) at λ = 540 nm.
A rat brain homogenate preparation containing fragments of cell membranes was used as a model system to investigate the antioxidant activity of the hydroxamic acids. To initiate the process of lipid peroxidation, ferrous ions were used to trigger the Fenton reaction, during which the iron valence changes and a highly reactive hydroxyl radical is formed, and tert-butyl hydroxyperoxide as a direct source of free radicals.

[8] = mean ± SEM, read-out: IC50 HDAC6 Inhibitory Activity

Row | SMILES | Effect on β-amyloid 1–40 aggregation [1] | IC50 [2, 8] | % of Activity, Antiradical Activity [3] | Effect on β-amyloid 1–42 aggregation [4] | IC50 [5] | IC50 [6] | melting point | % of Activity, Inhibition of LPO, Fe (II) [7] | % of Activity, Inhibition of LPO, t-BHP [7] | IC50 ([2]; Table S2, used for correlation with pKi, read-out: pIC50 (from experimental HDAC6 IC50) (converted))
1 | O=C(CCCCCCCC(=O)NC1C2CC3CC(C2)CC1C3)NO (stereo not drawn) [compound 16, N^1-(Adamantan-2-yl)-N^9-Hydroxynonanediamide] | noticeable fibrillation inhibition | 0.74 ± 0.01 µM | - (The ‘-’ mark indicates the lack of activity of the test substances (≤10%) in a particular test) | noticeable fibrillation inhibition | 49.5 ± 3.43 µM | > 100 µM | 133.2 °C | 26.41 ± 2.58% | 16.27 ± 0.42% | –
2 | CC1(C)[C@@H]2CCC1(C)[C@H](NC(=O)/C=C/c1ccc(C(=O)NO)cc1)C2 [compound 23, N-Hydroxy-4-((E)-3-Oxo-3-(((2R,4R)-1,7,7-Trimethylbicyclo[2.2.1]heptan-2-yl)amino)prop-1-en-1-yl)benzamide] | noticeable fibrillation inhibition | 18 ± 1.02 µM | 20.14 ± 1.28% | noticeable fibrillation inhibition | 68.3 ± 2.22 µM | 64.2 ± 4.1 µM | 202.5 °C | 32.91 ± 1.12% | 18.26 ± 4.90% | –
3 | CC1(C)C(NC(=O)/C=C/c2ccc(C(=O)NO)cc2)[C@@]2(C)CC[C@H]1C2 (stereo partly drawn) [compound 24, N-Hydroxy-4-((E)-3-Oxo-3-(((1S,4S)-1,3,3-Trimethylbicyclo[2.2.1]heptan-2-yl)amino)prop-1-en-1-yl)benzamide] | noticeable fibrillation inhibition | ≤ 6.5 µM | 20.32 ± 0.41% | noticeable fibrillation inhibition | 60.2 ± 1 µM | 52 ± 2.61 µM | – | 34.16 ± 1.37% | 20.63 ± 3.92% | 15.3 µM
